Results from a melting point compilation (Tetko et al.; mined from patent text by program, amines drawn as free bases though some values may be those of a salt).

| melting point | SMILES |
| --- | --- |
| 145 to 147 °C | CCCCC(=N)NC(=O)Nc1ccccc1OCc1ccccc1 |
| 7.16 °C | CCCCCCCCOc1ccc(-c2ncc(Br)cn2)c(F)c1 |
| 194 to 196 °C | NC(=NC(=O)c1nc(Cl)c(N)nc1N)NCCCCCCCCCCCC(=O)O |
| 203 to 205 °C | COc1cccc(C=C2NC(=O)N(C)C2=O)c1 |
| 162 °C | Cc1ccc(S(=O)(=O)N=CN(C)C)cc1Br |
| > 283 °C | Nc1nc(C(F)(F)F)c(-c2ccncc2)cc1C(=O)O |
| 168 to 170 °C | Cc1nc(CCO)c2c(n1)N(N)C(=O)C(C)(C)O2 |
| 135 °C | O=C(c1ccc(Cl)cc1)n1cc(CCN=c2sc3ccccc3s2)c2ccccc21 |
| 243 °C | O=C(CN1CCCCC1)Nc1ccc2c(c1)C(=O)c1cc(NC(=O)CN3CCCCC3)ccc1C2=O |
| 164 to 166 °C | COc1ccc(C(=O)Nc2c(Cl)cncc2Cl)nc1OC1CCCC1 |
| 211 to 215 °C | CC1(C)Oc2ccc(C#N)cc2[C@@H](n2ncccc2=O)[C@@H]1O (relative stereo) |
| 96 to 98 °C | CCC(CC)Oc1cc(C)nc(Oc2c(C)cc(C)cc2C)c1N |
| 160 to 161 °C | COc1cccc(Cn2cnc3c(-c4ccco4)nc(Cl)nc32)c1 |
| 136 to 139 °C | CC(=O)N1CCc2ccc(C(=O)c3cccc(F)c3)cc2C1 |
| 183 to 185 °C | CCOC(=O)c1cnc2c(c1NCCN(C)C)NC(=O)CN2 |
| 141 to 142 °C | CSCCNC(=O)c1cccc(-c2ccc3c(c2)C(Oc2ccc(Cl)cc2Cl)CC3)c1 (stereo not drawn) |
| 120 to 122 °C | CCCC[C@H](NC(=O)[C@H](CC(C)C)NC(=O)c1cccc(F)c1F)C(=O)CSCc1ccco1 |
| 181 to 182 °C | CCC(=O)Nc1cccc(O)c1 |
| 178 to 180 °C | CC(O)CC#Cc1cc(CN2CCOCC2)cc2c(=O)c(C(=O)NCc3ccc(Cl)cc3)cn(C)c12 (stereo not drawn) |
| 136 to 137 °C | COc1cc(CCCC2OC(=O)NC2=O)ccc1OCc1csc(CCc2ccccc2)n1 (stereo not drawn) |
| 105 to 107 °C | COC(=O)C[C@H](O)C[C@@H](O)C=Cc1c(-c2ccc(F)cc2)c(-c2ccc(F)cc2)c(C(=O)OCc2ccccc2)n1C(C)C |
| 98 to 99 °C | CC(C)S(=O)(=O)c1snc(OC[Si](C)(C)C)c1C#N |
| > 300 °C | CCCCn1c(=O)c2c(NC)n[nH]c2n(Cc2ccccc2[N+](=O)[O-])c1=O |
| 136 to 138 °C | CCCOCCOc1ccccc1COc1ccc2c(c1)C=C(C(=O)Nc1ccc(CN(C)C3CCOCC3)cc1)CCS2(=O)=O |

| melting point | SMILES |
| --- | --- |
| 159 to 161 °C | COC(=O)C(c1ccccc1)C(c1ccc(OC)cc1)n1cncn1 (stereo not drawn) |
| 85 to 87 °C | O=C(Nc1ccc2[nH]cnc2c1)C(=O)N1CCC(Cc2ccccc2)CC1 |
| 218 to 223 °C | O=C(COc1ccc(-c2ccccc2Cl)cn1)Nc1cscc1C(=O)O |
| 160 to 163 °C | COC(=O)c1ccc(C2OC23Cc2ccccc2C3=O)cc1 (stereo not drawn) |
| 75 to 76 °C | O=C1CCC(CCN2CCN(c3cc(C(F)(F)F)ccc3F)CC2)CC1 |
| 129 to 130 °C | O=C(O)CS(=O)CCCCCn1nc(-c2ccccc2)c(-c2ccccc2)c1-c1ccccc1 (stereo not drawn) |
| 113 to 114 °C | N#Cc1cccc2c1CCc1cc(C(F)(F)F)ccc1S2 |
| 204 °C | NC(=O)c1ccccc1C(=O)N(C[C@H]1CN(c2ccc(N3CCOCC3=O)cc2)C(=O)O1)C[C@H]1CN(c2ccc(N3CCOCC3=O)cc2)C(=O)O1 |
| 127 to 128 °C | O=S(=O)(c1ccccc1)n1ccc2c(CBr)cccc21 |
| 144 to 147 °C | COc1cc2c(cc1Br)CCOC2c1ccc([N+](=O)[O-])cc1 (stereo not drawn) |
| 110 to 112 °C | Cc1cccnc1OC(=O)Oc1ncccc1C |
| 212 to 213 °C | CC1=CC(Cl)C(Cl)(c2cc(C)no2)C=C1C(=O)O (stereo not drawn) |
| 116 to 119 °C | Cc1c(SCCCN2CCN(Cc3ccc(Cl)s3)CC2)ccnc1CSc1nc2cc(F)ccc2[nH]1 |
| 176 to 177 °C | COc1cc(-c2nnc(C)s2)cc2oc(=O)c(Cl)c(C)c12 |
| 235 to 238 °C | CC1CN(c2c(F)cc3c(=O)c(C(=O)O)cn(C4CC4)c3c2Cl)CC1CN (stereo not drawn) |
| 233 °C | Nc1cc(-c2cccnc2)nc(-c2ccco2)n1 |
| 110 to 116 °C | COc1ccc(-c2nc(C)n(CCC(C)(C)NCC(O)c3ccc(O)c(CO)c3)n2)cc1 (stereo not drawn) |
| 147 to 149 °C | COc1nnc(C)c(-c2ccc(SC)cn2)c1-c1ncc(Cl)cc1Cl |
| 174 to 180 °C | Cc1cc(N2CCOCC2)c2cccc(OCc3c(Cl)ccc(-n4cccc4CNC(=O)C=Cc4ccc(C(=O)O)cc4)c3Cl)c2n1 |
| 100 to 101 °C | CCc1cc(C)cc(CC)c1C1C(=O)C2CC(C3OCCCO3)CC2C1=O (stereo not drawn) |
| 184 to 185 °C | COc1ccnc(CS(=O)c2nc3cc4c(cc3[nH]2)OC(F)(F)O4)c1 (stereo not drawn) |
| 103 to 106 °C | CCOC(=O)C(C)n1c(-c2ccc(Cl)cc2)nc2cccnc21 (stereo not drawn) |
| 67 to 69 °C | COc1cc(C(C)=O)ccc1C1CCCCO1 (stereo not drawn) |
| 226 to 228 °C | CCCn1c(=O)cc(N)n(-c2ccccc2C)c1=O |

| melting point | SMILES |
| --- | --- |
| 56 to 70 °C | O=C(NC(Cc1c[nH]c2ccccc12)C(=O)O)c1ccccc1Cl (racemic) |
| 168 to 169 °C | CCSc1cc(C)nc(SCC)c1NC(=O)CSc1nc2cccc(C(=O)OC)c2o1 |
| 81 °C | CC1(C)CC(O)CC(C)(C)N1N=Nc1ccccc1Br |
| 128 to 129 °C | COc1ccc(C(O)CNCCc2ccc(OC)c(OC)c2C)cc1 (stereo not drawn) |
| 115 to 116 °C | CCOC(=O)C=Cc1ccc(C(=O)c2ccc3c(c2)C2(C)C4(C)CCC(C4)C2(C)O3)cc1 (stereo not drawn) |
| > 250 °C | COc1cc(C)nc2c(OCc3c(Cl)ccc(N)c3Cl)cccc12 |
| 261 °C | O=C(O)c1c(Cc2cc3c(cc2Cl)OCO3)c(-c2ccccn2)nn1CC1CCC(C(=O)O)CC1 (stereo not drawn) |
| 99 to 100 °C | Cc1oc(-c2ccccc2)nc1COc1cc(CO)on1 |
| 240 to 241 °C | COc1cc(OC)c(-c2cc3ccccc3s2)cc1/C=C/C(=O)c1ccc(C(N)=O)cc1 |
| 154 to 156 °C | Cc1cccc(C)c1N(CC(=O)NCCC(=O)O)C(=O)c1ccc(Cl)cc1 |
| 77 to 80 °C | Cc1ccc(Cl)c(N)c1C#N |
| 234 to 235 °C | O=C(NCC12CC3CC(CC(C3)C1)C2)c1cccc(O)c1Cl |
| 288 °C | CC1SC(=O)NN=C1c1ccc2c(c1)C(C)(C)CC(=O)N2 (stereo not drawn) |
| 215 to 217 °C | O=C(c1ccccc1)c1nc(Br)c(Br)[nH]1 |
| 198 to 200 °C | COc1ccc(-c2nc(N(C)C)c3c(C)c(C#N)sc3n2)cc1OC |
| 209 to 211 °C | CCc1nc2c(N)nc3ccccc3c2n1CCCS(=O)(=O)N(C)C |
| 89 to 91 °C | CCCCC(=N)OCC |
| 171 to 172 °C | CSc1nc(NCc2ccc(Br)cc2)n2ncc(C(C)C)c2n1 |
| 188 to 190 °C | O=C(O)COc1cc(Cl)ccc1C(=O)NCc1c(F)cccc1F |
| 82 to 84 °C | N#CCc1c(Cl)cccc1Br |
| 142 to 144 °C | O=C(O)CC(CCc1ccc(O)cc1)CC(=O)O |
| 76 to 81 °C | COC(=O)[C@H](Cc1ccc(NC(=S)NCCc2ccccc2)cc1)NC(=O)[C@@H]1CCCN1S(=O)(=O)c1ccc(C)cc1 |
| 266 to 267 °C | O=C(C1CCC(Nc2nccc(-n3cc(Cc4ccc(-c5ccncc5)cc4)nn3)n2)CC1)N1CCC(O)CC1 (stereo not drawn) |
| 109 to 111 °C | C=C(C)C(=O)OCCCCCCN(C)c1ccc(C=Cc2ccc([N+](=O)[O-])cc2)cc1 |

| melting point | SMILES |
| --- | --- |
| 177 to 178 °C | Cc1ccc(-c2ccc3c(c2)CCc2nn(-c4ccccn4)c(O)c2-3)cc1 |
| 197 to 199 °C | Cc1nn(-c2cccnc2)c(-c2ccccc2)c1CC(=O)O |
| 90 to 96 °C | C=CCn1c(=O)c2cnc(Nc3ccc(OCCN(CC)CC)cc3)nc2n(C(C)C)c1=O |
| 232 °C | COc1ccc(-n2c(CC(=O)O)c(C(=O)O)c3cc(Oc4cc(C(F)(F)F)cc(C(F)(F)F)c4)ccc32)cc1 |
| 66 to 67.5 °C | CCOC(=O)c1ccc(-c2nc(C(=O)OCC)ns2)cc1 |
| 114 to 115 °C | O=C1CC[C@@H]2CCc3ccccc3[C@@H]2CN1Cc1ccccc1 (relative stereo) |
| 123 to 126 °C | Cc1cccc(-c2[nH]c(C(C)C)nc2-c2cccc(-c3cccc(S(N)(=O)=O)c3)c2)n1 |
| 143 °C | CCCOc1c(OC)c(OC)cc(C)c1C(=O)c1c(Cl)cccc1Cl |
| 158 to 159 °C | O=C(O)CN1C(=O)C(c2ccccc2)SC1=S (stereo not drawn) |
| 175 to 177 °C | CC(C)(C)OC(=O)NC(Cc1ccccc1)C(=O)NC(Cc1ccccc1)C(=O)NCCc1c[nH]cn1 (stereo not drawn) |
| 151 to 153 °C | CCOP(=O)(OCC)C(Nc1ncc(-c2ccccc2)s1)P(=O)(OCC)OCC |
| 164 to 165 °C | CCOC(=O)c1c(C(=O)Nc2ccc(Cl)cc2C)cccc1[N+](=O)[O-] |
| 109 to 111 °C | CC1CC2C3CCC4CC(O)CCC4(C)C3C(O)CC2(C)C1C1(C)OCCO1 (stereo not drawn) |
| 159 to 160 °C | CC(C)(C)OC(=O)NC(Cc1cnc2ccccc2c1)C(=O)O (stereo not drawn) |
| 211 to 213 °C | CCOCc1nc2c(N)nc3cc(-c4ccncc4)ccc3c2n1CC(C)C |
| 90 to 92 °C | COc1ccc(N2CCN(CCC3CN(C)C(=O)O3)CC2)cc1OC (stereo not drawn) |
| 115 to 117 °C | CCN(CC)CCNC(=O)c1c(O)c2cnc(-c3ccccc3)nc2n(CCOC)c1=O |
| 179 to 180 °C | CC(=O)OC1C(COC(=O)c2ccccc2)OC(n2ccc(=O)[nH]c2=O)C1F (stereo not drawn) |
| 125 to 126 °C | Nc1nc2c(s1)CCN(C/C=C\c1cccnc1)CC2 |
| 192 to 195 °C | NS(=O)(=O)c1cc2c3c(ccc2cc1[N+](=O)[O-])N(C(=O)C(F)(F)F)CC3CCl (stereo not drawn) |
| 102 to 103 °C | CCCn1c(C#N)c(Cl)n(-c2ccc(Cl)cc2)c1=O |

| SMILES | melting point |
| --- | --- |
| COc1cc(C(=O)Nc2c(Cl)cc3cn[nH]c3c2C(=O)NC2(C)CSC2)n(-c2ncccc2Cl)n1 | 162 to 165 °C |
| Cc1nnc2n1-c1ccc(Br)cc1C(c1ccccn1)=NC2 | 248 to 250 °C |
| COC(=O)[C@]12CN(Cc3ccccc3)C[C@@H]1C(c1ccc(OC)cc1)=CC[C@@]2(C)c1ccccc1 (racemic) | 132 °C |
| CCCCSc1ccc(C(O)CNC2CCCCC2)cc1C (stereo not drawn) | 136 °C |
| CCc1cc2c(C3=NNC(=O)CC3C)cc(Cl)cn2n1 (stereo not drawn) | 172 to 174 °C |
